The results in this text go back to paper PMC5118709, “Identification of Polo-like kinase 1 interaction inhibitors using a novel cell-based assay” (Scientific Reports, 2016).

Molecules are shown by their SMILES. Several values for one entry are separate records, joined by “and”; a condition that tells them apart may be missing. Equal entries are not always repeated.

One series concerns HeLa cells. Kind of series: mitotic defect phenotypes by immunofluorescence. Type of series: cell-based. Particulars: 10 μM, 7 h. In a few lines: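 HeLa cells on poly-L-lysine coverslips treated 7 h, fixed in 4% formaldehyde/PHEM at 37 °C. Immunostained for pericentrin and α-tubulin with DAPI for DNA; spindle organisation scored by fluorescence microscopy against DMSO controls.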

The nature of a further series: stability by LC-MS. Type of series: physicochemical. An excerpt: Based on these observations, we speculated that the sulfone undergoes a β-elimination of the benzoate subunit to generate a vinyl sulfone which is responsible for the biological activity of this class of compounds. Using LCMS, we evaluated the stability of Cpd 16 in the buffer used in the FP assay. […] The sulfone β-elimination is a base-catalysed process and the buffer used in the assay is basic enough to allow the reaction to occur. Under neutral or acidic conditions, the compound was very stable and no fragmentation was observed.
Cpd 161, which is 2-((6-methyl-4-(trifluoromethyl)pyridin-2-yl)sulfonyl)ethyl 3-chlorobenzoate (400 μM final concentration), was added to 500 μl of FP buffer (previously described).

The target of the next series is T1, Plk1 (Homo sapiens, UniProt P53350).
T1 construct: localization of Plk1-GFP or endogenous Plk1 from mitotic centrosomes, kinetochores or the cytokinetic midbody; endogenous in cells
Kind of series: localization of Plk1 in mitotic cells. In kind it is cell-based. The conditions noted are these: up to 100 μM, data not shown.

The target of series [1] is T2, Plk1-Map interaction (Homo sapiens, UniProt P53350). Kind of series: LUMIER co-immunoprecipitation assay Plk1-Map.
Procedure: After cell lysis, GFP-Plk1 was immunoprecipitated and co-purified Map-Luc was measured by luminescence following addition of the luciferase substrate, coelenterazine.
Half a million stably transfected Map205-RLucII/GFP10-Plk1 cells in Tyrode solution were seeded per well in a 96-well plate and allowed to settle for 30 min at 37 °C. […] Plates were then centrifuged at 4 °C at 3000 rpm for 5 minutes to pellet cells. Cells were then lysed with the IP buffer (20 mM Tris pH 7.5, 150 mM NaCl, 2 mM EGTA, 0.5% NP-40, 1 mM DTT, PMSF, aprotinin and leupeptin) and incubated on ice for 20 minutes. Plates were centrifuged again at 4 °C at 3400 rpm for 10 minutes, and the soluble fraction was transferred into a new 96-well plate. Note that 10 μl of this fraction was transferred in white 96-well plates from which the luminescence was read as a measure of the input amount of cell lysate for the co-IP. GFP-Plk1 was immunoprecipitated by adding 0.35 μl of anti-GFP antibody (Invitrogen). Plates were sealed and incubated on a rotator at 4 °C for 30 minutes. Then, 4 μl of pre-washed protein A magnetic beads (Invitrogen) were added to each well. Plates were sealed and incubated at 4 °C for 1h30. The extracts + beads were then transferred in a 96-well PCR plates and beads were washed 3 times with the IP buffer using a magnetic 96-well rack. The fourth wash was done in Tyrode solution, then beads were re-suspended with it and transferred in a white 96-well plate. […] Tyrode was also added to the plates containing the input fraction, then Coelenterazine h was added to the wells, and enhanced luminescence was read as described above.
The target in series [2] is T2, Plk1-Map interaction. Kind of series: BRET Plk1-Map, transient Luc-Map/Plk1-GFP in HEK293T. Particulars: confirmation screen. In kind it is cell-based. More on the design: cDNAs for the human full length Plk1; expressed in transfected cells. As for the experimental part:
For the confirmation screen, the same procedure as for the primary screen was followed, except that HEK293T cells were also seeded at 6.25 millions of cells per simple CellStack on day 1 for transient transfections. These cells were transfected on day 3 with Luc-Map (5 μg) and Plk1-GFP (25 μg) pIRESHyg3 plasmids using polyethylenimine (PEI). To identify false-positives compounds, Luc-CRAF (4 μg) and GFP-BRAF (20 μg) plasmids were also transfected with PEI following the published procedure.
(In BRET a luciferase serves as donor, and the signal depends on an acceptor being close.)

T2 sequence (P53350 whole entry): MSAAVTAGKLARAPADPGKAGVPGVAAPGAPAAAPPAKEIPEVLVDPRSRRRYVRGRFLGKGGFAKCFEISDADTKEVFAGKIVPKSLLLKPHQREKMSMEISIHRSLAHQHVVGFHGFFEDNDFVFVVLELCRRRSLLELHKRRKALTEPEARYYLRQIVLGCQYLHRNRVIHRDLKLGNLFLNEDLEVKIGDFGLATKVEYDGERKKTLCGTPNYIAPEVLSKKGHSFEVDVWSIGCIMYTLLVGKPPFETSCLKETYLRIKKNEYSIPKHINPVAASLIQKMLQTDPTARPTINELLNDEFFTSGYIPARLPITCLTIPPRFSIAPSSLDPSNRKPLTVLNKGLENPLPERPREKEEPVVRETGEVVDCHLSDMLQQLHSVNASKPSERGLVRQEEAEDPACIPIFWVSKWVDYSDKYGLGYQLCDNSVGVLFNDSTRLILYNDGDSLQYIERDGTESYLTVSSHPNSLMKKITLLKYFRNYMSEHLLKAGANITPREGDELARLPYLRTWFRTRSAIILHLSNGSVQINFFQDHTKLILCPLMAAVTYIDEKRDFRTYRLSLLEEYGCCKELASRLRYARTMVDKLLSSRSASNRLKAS
T1 sequence (P53350 whole entry): as above

As for `Cc1cc(C(F)(F)F)cc(S(=O)(=O)CCOC(=O)c2cccc(Cl)c2)n1` [Cpd 16, 2-((6-methyl-4-(trifluoromethyl)pyridin-2-yl)sulfonyl)ethyl 3-chlorobenzoate], in the series with HeLa cells, the “2 > pericentrin foci (percentage of cells)” value was determined as 23 ± 11% and the “Disorganized spindles (percentage of cells)” value was 58 ± 13%. In “stability by LC-MS” (approximate pH 8.0, a few minutes (approximately 10 minutes)), the “stability in the FP buffer” value was “fragmentation occurred”. Further, in “stability by LC-MS” (neutral or acidic conditions), the stability result was “very stable”. Moreover, the “effect on localization of Plk1 in mitotic cells” value on Plk1 is “did not result in a significant decrease”. At Plk1-Map interaction [1] (10-25 μM, 2 h), the “Average-Beads (mean luminescence)” value is 25,276, the “Co-IP Values relative to top in plate column = 1” value is recorded as 0.022 and the “effect on the Plk1-Map interaction in co-IP” value is given as “disrupts the interaction with similar or better efficiency than TQ or PPG”. The “Relative Luminescence Unit” value at Plk1-Map interaction [1] (mean divided by maximum mean of the compounds) stood at 0.022. In addition, the “Luminescence on beads, duplicate wells” value on Plk1-Map interaction [1] (raw data, 10-25 μM, 2 h) was 21,904 and 28,648. Further, at Plk1-Map interaction [2], the “Confirmation Plk1-Map (transient) % Inihibition” value is on record as 30.06% and the “Confirmation Plk1-Map (transient) % Quench RLuc” value is on record as 74.57%.
